Common to all, as to assay: cell-based
One experiment addresses hNav1.7 (Homo sapiens, UniProt Q15858). The class given is cell-based. The note with it: IonWorks Quattro, use-dependent block, read-out: IWQ Use Nav1.7.
The next experiment concerns the target hNav1.5 (Homo sapiens, UniProt Q14524). The note with it: IonWorks Quattro, use-dependent block, read-out: IWQ Use Nav1.5.
The target in a further experiment is hNav1.3 (Homo sapiens, UniProt Q9NY46). The note with it: IonWorks Quattro, use-dependent block, read-out: IWQ Use Nav1.3.

Read-outs that look alike come from different tables or passages of the source. Positions of bridges follow the written chain, without caps; N, C: chain ends. Non-standard residues stand in square brackets, D forms with d. Residues, ends and D or L forms follow the SMILES beside them. 1Nal = N[C@@H](Cc1cccc2ccccc12)C(=O)O

Sequence of hNav1.3 (Q9NY46 whole entry, looked up): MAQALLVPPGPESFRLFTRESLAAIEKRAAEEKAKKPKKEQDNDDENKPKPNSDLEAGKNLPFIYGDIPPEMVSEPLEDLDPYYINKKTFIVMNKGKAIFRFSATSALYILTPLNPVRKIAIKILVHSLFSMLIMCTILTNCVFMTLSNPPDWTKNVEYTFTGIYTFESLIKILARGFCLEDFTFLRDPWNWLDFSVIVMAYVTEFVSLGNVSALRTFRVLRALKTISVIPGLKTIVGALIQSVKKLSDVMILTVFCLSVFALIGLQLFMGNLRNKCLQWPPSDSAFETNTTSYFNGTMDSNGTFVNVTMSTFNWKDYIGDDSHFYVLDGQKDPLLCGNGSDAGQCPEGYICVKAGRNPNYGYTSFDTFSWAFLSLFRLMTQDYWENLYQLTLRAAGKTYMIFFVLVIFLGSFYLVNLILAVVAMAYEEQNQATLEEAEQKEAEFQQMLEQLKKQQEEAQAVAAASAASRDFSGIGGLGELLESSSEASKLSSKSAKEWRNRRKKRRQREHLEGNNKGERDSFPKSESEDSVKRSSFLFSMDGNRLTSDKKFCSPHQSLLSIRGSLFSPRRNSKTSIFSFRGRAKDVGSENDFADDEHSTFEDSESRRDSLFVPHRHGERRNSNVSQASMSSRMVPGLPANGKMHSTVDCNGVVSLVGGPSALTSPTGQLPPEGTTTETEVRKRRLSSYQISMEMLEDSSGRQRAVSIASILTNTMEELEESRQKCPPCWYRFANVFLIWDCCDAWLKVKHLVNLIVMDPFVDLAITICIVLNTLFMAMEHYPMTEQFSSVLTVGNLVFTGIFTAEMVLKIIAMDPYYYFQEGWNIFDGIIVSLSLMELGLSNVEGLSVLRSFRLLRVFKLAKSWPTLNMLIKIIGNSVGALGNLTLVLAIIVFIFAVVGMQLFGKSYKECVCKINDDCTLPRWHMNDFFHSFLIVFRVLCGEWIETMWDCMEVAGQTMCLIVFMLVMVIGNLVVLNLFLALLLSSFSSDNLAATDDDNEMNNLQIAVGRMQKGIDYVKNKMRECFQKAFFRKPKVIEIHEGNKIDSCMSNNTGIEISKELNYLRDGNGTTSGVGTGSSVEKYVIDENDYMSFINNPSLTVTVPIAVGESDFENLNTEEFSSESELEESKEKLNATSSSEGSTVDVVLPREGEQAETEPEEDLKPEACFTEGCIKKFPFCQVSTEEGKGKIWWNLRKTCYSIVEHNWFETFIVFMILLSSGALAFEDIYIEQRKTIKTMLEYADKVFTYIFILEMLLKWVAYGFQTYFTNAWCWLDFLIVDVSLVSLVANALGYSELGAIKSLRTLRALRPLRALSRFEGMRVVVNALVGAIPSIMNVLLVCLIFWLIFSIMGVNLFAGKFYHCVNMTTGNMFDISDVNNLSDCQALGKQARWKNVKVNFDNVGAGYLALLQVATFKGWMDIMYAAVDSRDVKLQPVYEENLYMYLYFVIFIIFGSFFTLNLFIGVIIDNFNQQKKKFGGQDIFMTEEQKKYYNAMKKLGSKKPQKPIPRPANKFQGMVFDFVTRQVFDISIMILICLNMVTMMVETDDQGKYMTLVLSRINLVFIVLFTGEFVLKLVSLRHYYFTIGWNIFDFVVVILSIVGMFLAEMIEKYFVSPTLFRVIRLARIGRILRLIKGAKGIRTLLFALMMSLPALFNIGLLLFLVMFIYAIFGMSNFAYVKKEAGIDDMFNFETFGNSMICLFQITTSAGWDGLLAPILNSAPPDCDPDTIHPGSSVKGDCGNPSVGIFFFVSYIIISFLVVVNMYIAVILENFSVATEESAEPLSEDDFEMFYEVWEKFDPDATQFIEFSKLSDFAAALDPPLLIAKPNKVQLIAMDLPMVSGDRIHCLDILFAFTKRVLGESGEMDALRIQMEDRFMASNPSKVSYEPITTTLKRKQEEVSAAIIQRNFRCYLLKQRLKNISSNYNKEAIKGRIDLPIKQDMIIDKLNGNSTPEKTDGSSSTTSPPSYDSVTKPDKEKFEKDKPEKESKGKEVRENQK
Sequence of hNav1.5 (Q14524 whole entry, looked up): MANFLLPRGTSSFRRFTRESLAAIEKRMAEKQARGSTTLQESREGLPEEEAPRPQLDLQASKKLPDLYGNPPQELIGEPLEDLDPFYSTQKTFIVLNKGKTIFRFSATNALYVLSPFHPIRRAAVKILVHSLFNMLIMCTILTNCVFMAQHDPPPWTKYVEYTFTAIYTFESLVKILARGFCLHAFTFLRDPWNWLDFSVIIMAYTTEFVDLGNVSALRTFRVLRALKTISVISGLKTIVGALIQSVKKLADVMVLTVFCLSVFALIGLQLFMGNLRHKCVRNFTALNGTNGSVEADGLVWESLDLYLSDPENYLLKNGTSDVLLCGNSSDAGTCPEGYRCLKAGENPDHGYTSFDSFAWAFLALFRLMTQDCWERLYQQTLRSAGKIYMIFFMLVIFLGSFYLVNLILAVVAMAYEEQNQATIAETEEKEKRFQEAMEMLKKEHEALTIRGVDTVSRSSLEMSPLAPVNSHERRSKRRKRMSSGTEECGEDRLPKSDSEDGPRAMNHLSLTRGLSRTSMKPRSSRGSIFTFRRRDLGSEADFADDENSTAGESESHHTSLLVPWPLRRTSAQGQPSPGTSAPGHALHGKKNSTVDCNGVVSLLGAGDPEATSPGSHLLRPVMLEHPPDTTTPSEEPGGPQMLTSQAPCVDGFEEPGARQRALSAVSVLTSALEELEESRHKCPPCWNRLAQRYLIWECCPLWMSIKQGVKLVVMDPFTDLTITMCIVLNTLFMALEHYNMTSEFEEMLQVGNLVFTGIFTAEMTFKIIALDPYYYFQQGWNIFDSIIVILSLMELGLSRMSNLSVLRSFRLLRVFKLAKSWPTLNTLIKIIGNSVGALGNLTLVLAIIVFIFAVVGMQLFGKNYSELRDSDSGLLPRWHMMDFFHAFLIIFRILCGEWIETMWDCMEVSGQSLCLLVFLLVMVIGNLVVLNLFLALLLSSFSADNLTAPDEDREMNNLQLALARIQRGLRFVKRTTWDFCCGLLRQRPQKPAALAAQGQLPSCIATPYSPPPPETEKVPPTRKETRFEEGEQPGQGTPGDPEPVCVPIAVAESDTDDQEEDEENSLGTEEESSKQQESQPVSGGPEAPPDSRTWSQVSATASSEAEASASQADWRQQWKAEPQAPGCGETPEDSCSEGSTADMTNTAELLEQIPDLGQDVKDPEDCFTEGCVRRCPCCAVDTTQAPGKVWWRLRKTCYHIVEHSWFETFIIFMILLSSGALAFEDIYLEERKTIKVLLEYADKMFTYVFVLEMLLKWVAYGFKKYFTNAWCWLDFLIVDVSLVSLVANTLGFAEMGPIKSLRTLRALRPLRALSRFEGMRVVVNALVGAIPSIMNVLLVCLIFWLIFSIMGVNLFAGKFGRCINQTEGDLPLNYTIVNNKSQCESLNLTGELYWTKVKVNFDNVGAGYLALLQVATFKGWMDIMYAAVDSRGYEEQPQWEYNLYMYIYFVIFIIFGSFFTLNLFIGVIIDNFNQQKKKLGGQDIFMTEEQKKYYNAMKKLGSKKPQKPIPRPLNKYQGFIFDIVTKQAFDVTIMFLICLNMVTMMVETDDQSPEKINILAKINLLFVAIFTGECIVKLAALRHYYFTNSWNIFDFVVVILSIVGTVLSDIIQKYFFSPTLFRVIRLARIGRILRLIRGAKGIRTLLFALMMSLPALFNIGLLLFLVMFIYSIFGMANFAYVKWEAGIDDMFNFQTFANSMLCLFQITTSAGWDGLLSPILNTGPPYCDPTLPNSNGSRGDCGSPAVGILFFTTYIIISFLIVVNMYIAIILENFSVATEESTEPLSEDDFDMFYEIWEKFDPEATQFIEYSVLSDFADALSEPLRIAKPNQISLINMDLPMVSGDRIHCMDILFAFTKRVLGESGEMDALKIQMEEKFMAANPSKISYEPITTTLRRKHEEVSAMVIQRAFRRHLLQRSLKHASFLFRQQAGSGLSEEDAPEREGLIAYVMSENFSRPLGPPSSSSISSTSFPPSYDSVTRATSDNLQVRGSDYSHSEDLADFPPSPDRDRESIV

As for `CC[C@H](C)[C@@H]1NC(=O)[C@@H]2CSSC[C@@H]3NC(=O)[C@H](C(C)C)NC(=O)[C@H](CC(C)C)NC(=O)[C@H](CC(N)=O)NC(=O)[C@@H]4CCCN4C(=O)[C@H](CCCNC(=N)N)NC(=O)[C@H](CSSC[C@H](NC(=O)[C@@H](N)CC(=O)O)C(=O)N[C@@H](CC(C)C)C(=O)NCC(=O)N[C@@H](Cc4ccccc4)C(=O)N[C@@H](CCSC)C(=O)N[C@@H](CCCNC(=N)N)C(=O)N[C@@H](CCCCN)C(=O)N2)NC(=O)[C@H](CSSC[C@@H](C(=O)N[C@@H](CCCCN)C(=O)N[C@@H](Cc2cccc4ccccc24)C(=O)N[C@@H](Cc2c[nH]c4ccccc24)C(=O)N[C@@H](Cc2ccccc2)C(N)=O)NC(=O)[C@H](Cc2c[nH]c4ccccc24)NC(=O)[C@H](CCCCN)NC(=O)[C@H](Cc2c[nH]cn2)NC(=O)[C@H]([C@@H](C)O)NC(=O)[C@H](CCCNC(=N)N)NC(=O)[C@H](CO)NC3=O)NC(=O)[C@H](CCCCN)NC(=O)[C@H](CC(=O)O)NC(=O)[C@H](CC(N)=O)NC(=O)[C@H](CC(=O)O)NC(=O)[C@@H]2CCCN2C1=O` [compound 460] (H-DCLGFMRKCIPDNDKCCRPNLVCSRTHKWCK[1Nal]WF-NH2; disulfide 2-17, 9-23, 16-30), the results for the IC50 at hNav1.7 (hNav1.7), on hNav1.5 (hNav1.5) and at hNav1.3 (hNav1.3) were 80 nM, greater than 5000 nM and 30 nM, respectively.

On to `CC[C@H](C)[C@@H]1NC(=O)[C@@H]2CSSC[C@@H]3NC(=O)[C@H](C(C)C)NC(=O)[C@H](CC(C)C)NC(=O)[C@H](CC(N)=O)NC(=O)[C@@H]4CCCN4C(=O)[C@H](CCCNC(=N)N)NC(=O)[C@H](CSSC[C@H](NC(=O)[C@@H](N)CC(=O)O)C(=O)N[C@@H](CC(C)C)C(=O)NCC(=O)N[C@@H](Cc4ccccc4)C(=O)N[C@@H](Cc4c[nH]c5ccccc45)C(=O)N[C@@H](CCCNC(=N)N)C(=O)N[C@@H](CCCCN)C(=O)N2)NC(=O)[C@H](CSSC[C@@H](C(=O)N[C@@H](CCCCN)C(=O)N[C@@H](Cc2ccc(O)cc2)C(=O)N[C@@H](Cc2cccc4ccccc24)C(=O)N[C@@H](Cc2ccccc2)C(N)=O)NC(=O)[C@H](Cc2c[nH]c4ccccc24)NC(=O)[C@H](CCCCN)NC(=O)[C@H](Cc2c[nH]cn2)NC(=O)[C@H]([C@@H](C)O)NC(=O)[C@H](CCCNC(=N)N)NC(=O)[C@H](CO)NC3=O)NC(=O)[C@H](CCCCN)NC(=O)[C@H](CC(=O)O)NC(=O)[C@H](CC(N)=O)NC(=O)[C@H](CC(=O)O)NC(=O)[C@@H]2CCCN2C1=O` [compound 461] (H-DCLGFWRKCIPDNDKCCRPNLVCSRTHKWCKY[1Nal]F-NH2; disulfide 2-17, 9-23, 16-30), for which the results for the IC50 on hNav1.7 (hNav1.7), at hNav1.5 (hNav1.5) and at hNav1.3 (hNav1.3) were 100 nM, greater than 5000 nM and 50 nM, respectively.

For the compound `CSCC[C@@H]1NC(=O)[C@H](Cc2ccccc2)NC(=O)CNC(=O)[C@H](CC(C)C)NC(=O)[C@@H](NC(=O)[C@@H](N)CC(=O)O)CSSC[C@@H]2NC(=O)[C@@H]3CSSC[C@@H](C(=O)N[C@@H](CCCCN)C(=O)N[C@@H](Cc4ccc(O)cc4)C(=O)N[C@@H](Cc4cccc5ccccc45)C(=O)N[C@@H](Cc4ccccc4)C(N)=O)NC(=O)[C@H](Cc4c[nH]c5ccccc45)NC(=O)[C@H](CCCCN)NC(=O)[C@H](Cc4c[nH]cn4)NC(=O)[C@H]([C@@H](C)O)NC(=O)[C@H](CCCNC(=N)N)NC(=O)[C@H](CO)NC(=O)[C@H](CSSC[C@H](NC(=O)[C@H](CCCCN)NC(=O)[C@H](CCCNC(=N)N)NC1=O)C(=O)N[C@@H](Cc1cccc4ccccc14)C(=O)N1CCC[C@H]1C(=O)N[C@@H](CC(=O)O)C(=O)N[C@@H](CC(N)=O)C(=O)N[C@@H](CC(=O)O)C(=O)N[C@@H](CCCCN)C(=O)N3)NC(=O)[C@H](C(C)C)NC(=O)[C@H](CC(C)C)NC(=O)[C@H](CC(N)=O)NC(=O)[C@@H]1CCCN1C(=O)[C@H](CCCNC(=N)N)NC2=O` [compound 462], the IC50 at hNav1.7 (hNav1.7) is 110 nM; at hNav1.5 (hNav1.5), greater than 5000 nM; on hNav1.3 (hNav1.3), 70 nM.

On to `CC[C@H](C)[C@@H]1NC(=O)[C@@H]2CSSC[C@@H]3NC(=O)[C@H](C(C)C)NC(=O)[C@H](CC(C)C)NC(=O)[C@H](CC(N)=O)NC(=O)[C@@H]4CCCN4C(=O)[C@H](CCCNC(=N)N)NC(=O)[C@H](CSSC[C@H](NC(=O)[C@@H](N)CC(=O)O)C(=O)N[C@@H](CC(C)C)C(=O)NCC(=O)N[C@@H](Cc4ccccc4)C(=O)N[C@@H](CCSC)C(=O)N[C@@H](CCCNC(=N)N)C(=O)N[C@@H](CCCCN)C(=O)N2)NC(=O)[C@H](CSSC[C@@H](C(=O)N[C@@H](CCCCN)C(=O)N[C@@H](Cc2ccc(O)cc2)C(=O)N[C@@H](Cc2cccc4ccccc24)C(=O)N[C@@H](Cc2ccccc2)C(N)=O)NC(=O)[C@H](Cc2c[nH]c4ccccc24)NC(=O)[C@H](CCCCN)NC(=O)[C@H](Cc2c[nH]cn2)NC(=O)[C@H](CC(C)C)NC(=O)[C@H](CCCNC(=N)N)NC(=O)[C@H](CO)NC3=O)NC(=O)[C@H](CCCCN)NC(=O)[C@H](CC(=O)O)NC(=O)[C@H](CC(N)=O)NC(=O)[C@H](CC(=O)O)NC(=O)[C@@H]2CCCN2C1=O` [compound 463] (H-DCLGFMRKCIPDNDKCCRPNLVCSRLHKWCKY[1Nal]F-NH2; disulfide 2-17, 9-23, 16-30), for which the IC50 on hNav1.7 (hNav1.7) is 130 nM; on hNav1.5 (hNav1.5) it was greater than 5000 nM; on hNav1.3 (hNav1.3) it was 180 nM.

`CSCC[C@@H]1NC(=O)[C@H](Cc2ccccc2)NC(=O)CNC(=O)[C@H](CC(C)C)NC(=O)[C@@H](NC(=O)[C@H](CC(=O)O)NC(=O)[C@@H](N)Cc2c[nH]c3ccccc23)CSSC[C@@H]2NC(=O)[C@@H]3CSSC[C@@H](C(=O)N[C@@H](CCCCN)C(=O)N[C@@H](Cc4ccc(O)cc4)C(=O)N[C@H](C(=O)N[C@@H](Cc4ccccc4)C(N)=O)C(C)C)NC(=O)[C@H](Cc4c[nH]c5ccccc45)NC(=O)[C@H](CCCCN)NC(=O)[C@H](Cc4c[nH]cn4)NC(=O)[C@H]([C@@H](C)O)NC(=O)[C@H](CCCNC(=N)N)NC(=O)[C@H](CO)NC(=O)[C@H](CSSC[C@H](NC(=O)[C@H](CCCCN)NC(=O)[C@H](CCCNC(=N)N)NC1=O)C(=O)N[C@@H](Cc1cccc4ccccc14)C(=O)N1CCC[C@H]1C(=O)N[C@@H](CC(=O)O)C(=O)N[C@@H](CC(N)=O)C(=O)N[C@@H](CC(=O)O)C(=O)N[C@@H](CCCCN)C(=O)N3)NC(=O)[C@H](C(C)C)NC(=O)[C@H](CC(C)C)NC(=O)[C@H](CC(N)=O)NC(=O)[C@@H]1CCCN1C(=O)[C@H](CCCNC(=N)N)NC2=O` [compound 464]: the IC50 is 200 nM on hNav1.7 (hNav1.7), greater than 5000 nM on hNav1.5 (hNav1.5) and 220 nM on hNav1.3 (hNav1.3).

`CC[C@H](C)[C@@H]1NC(=O)[C@@H]2CSSC[C@@H]3NC(=O)[C@H](C(C)C)NC(=O)[C@H](CC(C)C)NC(=O)[C@H](CC(N)=O)NC(=O)[C@@H]4CCCN4C(=O)[C@H](CCCNC(=N)N)NC(=O)[C@H](CSSC[C@H](NC(=O)[C@@H](N)CC(=O)O)C(=O)N[C@@H](CC(C)C)C(=O)NCC(=O)N[C@@H](Cc4ccccc4)C(=O)N[C@@H](Cc4ccccc4)C(=O)N[C@@H](CCCNC(=N)N)C(=O)N[C@@H](CCCCN)C(=O)N2)NC(=O)[C@H](CSSC[C@@H](C(=O)N[C@@H](CCCCN)C(=O)N[C@@H](Cc2ccc(O)cc2)C(=O)N[C@H](C(=O)N[C@@H](Cc2cccc4ccccc24)C(N)=O)C(C)C)NC(=O)[C@H](Cc2c[nH]c4ccccc24)NC(=O)[C@H](CCCCN)NC(=O)[C@H](Cc2c[nH]cn2)NC(=O)[C@H]([C@@H](C)O)NC(=O)[C@H](CCCNC(=N)N)NC(=O)[C@H](CO)NC3=O)NC(=O)[C@H](CCCCN)NC(=O)[C@H](CC(=O)O)NC(=O)[C@H](CC(N)=O)NC(=O)[C@H](CC(=O)O)NC(=O)[C@@H]2CCCN2C1=O` [compound 561] (H-DCLGFFRKCIPDNDKCCRPNLVCSRTHKWCKYV[1Nal]-NH2; disulfide 2-17, 9-23, 16-30): the IC50 at hNav1.7 is 11 nM; at hNav1.5, 2200 nM; on hNav1.3, 7 nM.

For the compound `CC[C@H](C)[C@@H]1NC(=O)[C@@H]2CSSC[C@@H]3NC(=O)[C@H](C(C)C)NC(=O)[C@H](CC(C)C)NC(=O)[C@H](CC(N)=O)NC(=O)[C@@H]4CCCN4C(=O)[C@H](CCCNC(=N)N)NC(=O)[C@H](CSSC[C@H](NC(=O)[C@@H](N)CC(=O)O)C(=O)N[C@@H](CC(C)C)C(=O)NCC(=O)N[C@@H](Cc4cccnc4)C(=O)N[C@@H](CCSC)C(=O)N[C@@H](CCCNC(=N)N)C(=O)N[C@@H](CCCCN)C(=O)N2)NC(=O)[C@H](CSSC[C@@H](C(=O)N[C@@H](CCCCN)C(=O)N[C@@H](Cc2ccc(O)cc2)C(=O)N[C@H](C(=O)N[C@@H](Cc2ccccc2)C(N)=O)C(C)C)NC(=O)[C@H](Cc2c[nH]c4ccccc24)NC(=O)[C@H](CCCCN)NC(=O)[C@H](Cc2c[nH]cn2)NC(=O)[C@H]([C@@H](C)O)NC(=O)[C@H](CCCNC(=N)N)NC(=O)[C@H](CO)NC3=O)NC(=O)[C@H](CCCCN)NC(=O)[C@H](CC(=O)O)NC(=O)[C@H](CC(N)=O)NC(=O)[C@H](CC(=O)O)NC(=O)[C@@H]2CCCN2C1=O` [compound 596], the IC50 at hNav1.7 (hNav1.7) is 2600 nM; on hNav1.5 (hNav1.5), greater than 5000 nM; at hNav1.3 (hNav1.3) it was greater than 5000 nM.

Take `CC[C@H](C)[C@@H]1NC(=O)[C@@H]2CSSC[C@@H]3NC(=O)[C@H](C(C)C)NC(=O)[C@H](CC(C)C)NC(=O)[C@H](CC(N)=O)NC(=O)[C@@H]4CCCN4C(=O)[C@H](CCCNC(=N)N)NC(=O)[C@H](CSSC[C@H](NC(=O)[C@@H](N)CC(=O)O)C(=O)N[C@@H](CC(C)C)C(=O)NCC(=O)N[C@@H](C)C(=O)N[C@@H](Cc4ccccc4)C(=O)N[C@@H](CCCNC(=N)N)C(=O)N[C@@H](CCCCN)C(=O)N2)NC(=O)[C@H](CSSC[C@@H](C(=O)N[C@@H](CCCCN)C(=O)N[C@@H](Cc2ccc(O)cc2)C(=O)N[C@H](C(=O)N[C@@H](Cc2ccccc2)C(=O)O)C(C)C)NC(=O)[C@H](Cc2c[nH]c4ccccc24)NC(=O)[C@H](CCCNC(=N)N)NC(=O)[C@H](Cc2c[nH]cn2)NC(=O)[C@H]([C@@H](C)O)NC(=O)[C@H](CCCNC(=N)N)NC(=O)[C@H](CO)NC3=O)NC(=O)[C@H](CCCCN)NC(=O)[C@H](CC(=O)O)NC(=O)[C@H](Cc2ccc(O)cc2)NC(=O)[C@H](CC(=O)O)NC(=O)[C@@H]2CCCN2C1=O` [compound 597] (H-DCLGAFRKCIPDYDKCCRPNLVCSRTHRWCKYVF-OH; disulfide 2-17, 9-23, 16-30): the IC50 is greater than 5000 nM on hNav1.7 (hNav1.7), 7350 nM on hNav1.5 (hNav1.5) and 1100 nM at hNav1.3 (hNav1.3).

Source of the values: patent US9340590B2 (priority 2011, dated 2016).
